In this assay the target is human MCH1 receptor (Homo sapiens, UniProt Q99705). Description: Saturation and competition binding of [3H]Compound 10, membranes of Cos-7 cells transfected with MCH1. On the set-up: expressed in transfected cells; host or cells: COS-7. The following applies: 0.4 nM [3H]Compound 10; read-out: IC50, displacement of specific [3H]Compound 10 binding. The method, then: Saturation equilibrium binding of [3H]Compound 10 to the human MCH1 receptor. Membrane preparations from Cos-7 cells transfected with MCH1 were incubated with varying concentrations of [3H]Compound 10 (SA: 56 Ci/mmol) at room temperature for 90 min, in a volume of 0.250 ml. The reaction was terminated by filtration in GF/C filters, and the radioactivity determined by scintillation counting. Non-specific binding was defined as the amount of radioactivity retained in the filter after incubating the reaction mixture in the presence of unlabeled Compound 10 ([…]).
Competition binding of [3H]Compound 10 to the human MCH1 receptor. […] The reaction was terminated by filtration in GF/C filters and the radioactivity bound to the membrane was determined by scintillation counting.
[3H]Compound 10 was tested for its ability to bind to membrane preparations of cells expressing the human MCH1 receptor.

Sequence of human MCH1 receptor (Q99705 whole entry): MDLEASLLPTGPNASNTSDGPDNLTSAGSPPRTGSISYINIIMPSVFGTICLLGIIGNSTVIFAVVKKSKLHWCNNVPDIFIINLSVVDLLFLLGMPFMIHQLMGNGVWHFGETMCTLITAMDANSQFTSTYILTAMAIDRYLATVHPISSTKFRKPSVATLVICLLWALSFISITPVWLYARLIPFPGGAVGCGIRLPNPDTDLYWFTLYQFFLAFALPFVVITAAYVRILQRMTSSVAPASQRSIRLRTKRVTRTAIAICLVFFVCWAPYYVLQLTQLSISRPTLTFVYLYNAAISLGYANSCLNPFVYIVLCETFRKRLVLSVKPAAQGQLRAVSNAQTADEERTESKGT

As usually defined, the IC50 is the point on the concentration scale where inhibition reaches its midpoint. For the compound `COCC1=C(C(=O)OC)[C@H](c2ccc(F)c(F)c2)N(C(=O)NCCCN2CCC(c3cccc(NC(C)=O)c3)CC2)C(=O)N1` [Example 10, (+)-1,2,3,6-TETRAHYDRO-1-{N-[4-(3,-ACETAMIDO)-PHENYLPIPERIDIN-1-YL]PROPYL}CARBOXAMIDO-4-METHOXYMETHYL-6-(3,4-DIFLUORO-PHENYL)-2-OXOPYRIMIDINE-5-CARBOXYLIC ACID METHYL ESTER], the 50% inhibitory concentration (IC50) was 0.33 nM.

Values taken from US20040038855A1 (priority 1999, published 2004).
